Earlier results on two compounds are cited in patent US6380201B1, “Methods of treating or ameliorating the symptoms of common cold or allergic rhinitis with serotonin 5-HT1F agonists” (Eli Lilly and Company, priority 1997, dated 2002).

One series deals with T1, 5-HT1F receptor (Homo sapiens, UniProt P30939).
T1 sequence (P30939 1-366): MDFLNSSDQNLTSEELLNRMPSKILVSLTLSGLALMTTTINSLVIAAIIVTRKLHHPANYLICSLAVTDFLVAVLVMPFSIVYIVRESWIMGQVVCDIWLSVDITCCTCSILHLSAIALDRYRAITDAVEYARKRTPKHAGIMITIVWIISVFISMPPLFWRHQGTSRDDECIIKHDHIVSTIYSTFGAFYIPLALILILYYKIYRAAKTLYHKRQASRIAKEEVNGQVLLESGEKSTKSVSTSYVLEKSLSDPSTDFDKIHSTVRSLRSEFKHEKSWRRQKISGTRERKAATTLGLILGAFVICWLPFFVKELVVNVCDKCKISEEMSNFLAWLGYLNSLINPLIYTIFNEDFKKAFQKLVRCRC
The following applies: cited from earlier work.

Another series concerns the target human 5-HT1D receptor (Homo sapiens, UniProt P28221). The following applies: cited from earlier work.

Molecules are shown by their SMILES.

Sequence of human 5-HT1D receptor (P28221 whole entry): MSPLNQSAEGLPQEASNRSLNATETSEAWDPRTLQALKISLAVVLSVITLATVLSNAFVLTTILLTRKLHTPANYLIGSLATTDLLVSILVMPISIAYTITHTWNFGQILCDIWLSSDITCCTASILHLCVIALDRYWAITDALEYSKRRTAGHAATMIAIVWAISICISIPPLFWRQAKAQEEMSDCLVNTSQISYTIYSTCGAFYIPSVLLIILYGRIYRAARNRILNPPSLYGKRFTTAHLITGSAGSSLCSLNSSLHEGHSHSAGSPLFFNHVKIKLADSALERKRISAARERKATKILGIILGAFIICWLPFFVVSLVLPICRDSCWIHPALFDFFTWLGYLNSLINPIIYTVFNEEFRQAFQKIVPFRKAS

Regarding `NCCc1c[nH]c2ccc(C(N)=O)cc12` [5-carboxamidotryptamine], on 5-HT1F receptor, the affinity entry was “low affinity”.

As for `CNS(=O)(=O)Cc1ccc2[nH]cc(CCN(C)C)c2c1` [Sumatriptan], the affinity result at 5-HT1F receptor was “show affinity”; on human 5-HT1D receptor, “high affinity”.
